The values that follow come from patent US11091429B2, “Organic compounds” (Givaudan SA, priority 2012, dated 2021).

The nature of assay [1]: Test in orange beverage. To be noted: 1 ppm; water, 7% sugar (8% sucrose elsewhere in the source), 0.1% citric acid, orange flavour 0.06%. As to the method: (§1) Samples were evaluated by expert tasters. Tasters were asked to describe the samples focusing on authentic taste, mouthfeel, fullness, salty-ness, salivation, umami, sweetness, juiciness, richness, long lastingness and fattiness.
Base is water, 7% sugar, 0.1% citric acid, proprietary orange flavour @ 0.06%.
(§2) Samples were evaluated by expert tasters. Tasters were asked to describe the samples focusing on authentic taste, mouthfeel, fullness, salty-ness, salivation, umami, sweetness, juiciness, richness, long lastingness and fattiness
Base is water, 7% sugar, 0.1% citric acid, proprietary orange flavour @ 0.06%
(§3) Samples were evaluated by expert tasters. Tasters were asked to describe the samples focusing on authentic taste, mouth feel, fullness, salivation, salty-ness, umami, sweetness, juiciness, richness, long lastingness and fattiness
Samples were evaluated by expert tasters. Tasters were asked to describe the samples focusing on authentic taste, mouthfeel, fullness, salivation, sweetness, juiciness, richness, long lastingness and fattiness
Comparison in an Orange Drink
Base: water, 8% sucrose, 0.1% citric acid, proprietary orange flavour @ 0.06%.

A short description of assay [2]: Tasting in mango juice drink, 1% clear mango juice. To be noted: 8% sucrose, 0.1% citric acid, mango flavour 0.05%. As to the method: Comparison in a Mango Juice Drink
Base is 8% sucrose, 0.1% citric acid, 1% clear mango juice, and a proprietary mango flavour at 0.05%.
as §1
Base is water, 8% sucrose, 0.1% citric acid, 1% clear mango juice, proprietary mango flavour @ 0.05%
(§4) Samples were evaluated by expert tasters. Tasters were asked to describe the samples focusing on authentic taste, mouthfeel, fullness, salivation, salty-ness, umami, sweetness, juiciness, richness, long lastingness and fattiness.
Base is water, 8% sucrose, 0.1% citric acid, 1% clear mango juice, proprietary mango flavour @0.05%
as §2
Base is 8% sucrose, 0.1% citric acid, 1% clear mango juice, proprietary mango flavour @ 0.05%
as §3
Base is water, 8% sucrose, 0.1% citric acid, 1% clear mango juice, proprietary mango flavour @ 0.05%.
Test in a Mango Juice Drink

Assay [3] is described as follows: Tasting in strawberry drink. To be noted: 7% sucrose, 0.1% citric acid, strawberry flavour 0.015%. As to the method:
(§5) Samples were prepared and evaluated by expert tasters. Tasters were asked to describe the samples focusing on authentic taste, mouthfeel, fullness, salty-ness, salivation, umami, sweetness, juiciness, richness, long lastingness and fattiness.
Comparison in a Strawberry Drink
Base is 7% sucrose, 0.1% citric acid, and a proprietary strawberry flavour @ 0.015%
as §1
Base is water, 7% sucrose, 0.1% citric acid, proprietary strawberry flavour @ 0.015%
as §4
Test in a Strawberry Drink
Base is 7% sucrose, 0.1% citric acid, proprietary strawberry flavour @ 0.015%

Assay [4] is described as follows: Tasting in vanilla milk 0.15% fat. Conditions: 1 ppm, 4% sucrose, Vaniline 10 ppm + vanilla extract 0.03%. As to the method:
as §5
Base: Milk 0.15% fat, sweetened with 4% sucrose by weight, flavoured with proprietary
Vaniline flavour @ 10 ppm+Vanilla ext. @ 0.03%
as §1
Comparison in a Vanilla Milk Drink
Vaniline @ 10 ppm+Vanilla extract @ 0.03%
Base: Milk 0.15% fat, sweetened with 4% sucrose by weight, flavoured with proprietary Vaniline @ 10 ppm+Vanilla extract @ 0.03%

Assay [5] is described as follows: Tasting in Maggi beef bouillon. Conditions: Maggi beef bouillon 1 tablet in 500 ml of hot water. Here is the method:
as §5
Comparison in Beef Bouillon
Base is Maggi beef bouillon 1 tablet in 500 ml of hot water
as §1, §4, §2, §3

Assay [6] can be described thus: Tasting in strawberry flavoured sugar sweetened yoghurt. To be noted: 2 ppm, 1.5% fat yoghurt, 8% sucrose, strawberry flavour 0.015%. Here is the method:
Strawberry Flavoured Sugar Sweetened Yoghurt
In a 1.5% fat yoghurt base, sweetened with 8% sucrose by weight, flavoured with a proprietary strawberry flavour @ 0.015% several different N-acyl aminoacids were added.
as §5
Test in a Strawberry Yoghurt
Base: Yoghurt 1.5% fat yoghurt, 8% sucrose, proprietary strawberry flavour @ 0.015%
as §4

Assay [7] in a line: Test in peach flavoured drink. Conditions: 1 ppm; water, 8% sugar, 0.1% citric acid, peach flavour 0.05%. Here is the method:
as §5
Test in Peach Flavoured Drink:
Base is water, 8% sugar, 0.1% citric acid, and proprietary peach flavour at 0.05%
as §1
Comparison in a Peach Drink
Base is water, 8% sugar, 0.1% citric acid, proprietary peach flavour at 0.05%
as §4

The nature of assay [8]: Tasting in beef bouillon base. To be noted: 0.5 PPM in beef bouillon base 1.0% salt, 0.5% fat. As to the method:
(§6) The following formulations were prepared and tasted by trained panelists.
Beef Bouillon base 1.0% salt, 0.5% fat

Assay [9] can be described thus: Tasting in chicken bouillon. Conditions: 0.7% salt, 0.5% fat. As to the method:
as §6
Standard Chicken bouillon base, 0.7% salt, 0.5% fat
Samples were prepared and evaluated by expert tasters. Tasters were asked to describe the samples focusing on authentic taste, mouthfeel, fullness, salivation, salty-ness, umami, sweetness, juiciness, richness, long lastingness and fattiness.
Test in Soups and Bouillons
Standard Chicken Bouillon Base

Setting [10] is: 0.2 PPM in chicken bouillon base.

Turning to `CCCCC/C=C\C/C=C\CCCCCCCC(=O)NCC(=O)O` [C18:2-gly, N-linoleoyl-glycine], in assay [1], the tasting result was “very juicy, salivating, authentic, long lasting and sweet aftertaste”. Regarding `CCCCCC/C=C\CCCCCCCC(=O)NC(CCC(=O)O)C(=O)O` (stereo not drawn) [C16:1-glu, N-palmitenoyl-Glu], the tasting result in assay [2] (1 ppm) was “full, heavy, jammy, long lasting”; in assay [3] (0.5 ppm), “full, fatty, creamy”; in assay [4] it was “full, fatty, creamy, sweet vanilla”. Turning to `CCCCCCCCCCCCCCCC(=O)NC(CCSC)C(=O)O` (stereo not drawn) [C16:0-met, N-palmitoyl-Met], the tasting result in assay [2] (1 ppm) is on record as “fatty, full body, juicy, metallic”; in assay [5] (1 ppm), “salty, full, nice salivating, lingering”; in assay [1], “slightly metallic, fresh”.

On to `CCCCCCCC/C=C\CCCCCCCC(=O)NCCC(=O)O` [C18:1-beta ala], for which the tasting result was “more juicy, longlasting” in assay [2] (2 ppm) and “more salty salivating umami” in assay [5] (2 ppm). With `CCCCCCCCCCCCCCCCCC(=O)NCCCC(=O)O` [C18:0-gaba], the tasting result was “juicy full, jammy” in [6]; “mild creamy, fruity, juicy and long lasting” in assay [3] (0.5 ppm). Take `CCCCC/C=C\C/C=C\CCCCCCCC(=O)NC(CO)C(=O)O` (stereo not drawn) [C18:2-ser, N-linoleoyl-Ser]: the tasting result in assay [2] (1 ppm) is reported as “apple note, less acidic, juicy”; in assay [5] (1 ppm) it was “more umami, slightly more salty, sweet”; in assay [1] it was “very fresh, authentic, slightly less sweet, more juicy”. In the case of `CCCCC/C=C\C/C=C\CCCCCCCC(=O)NCCC(=O)O` [C18:2-beta ala], the tasting result is on record as “full long lasting nice juicy, almost a bit salty” in [2] (2 ppm) and “salty, savoury, full” in assay [5] (2 ppm). Consider `CCCCCCCCCCCCCCCC(=O)N1CCCC1C(=O)O` (stereo not drawn) [C16:0-pro, N-palmitoyl-Pro], for which the tasting result is “overripe, orange like, long lasting after taste” in assay [2] (1 ppm) and “more salty, full, darker, more meat-like” in [5] (1 ppm). As to `CCCCCCCC/C=C\CCCCCCCC(=O)N[C@H](C(=O)O)C(C)C` [C18:1-val, N-oleoyl-L-valine], the tasting result in assay [7] is listed as “tropical, fatty, skin, juicy”. Take `CCCCC/C=C\C/C=C\CCCCCCCC(=O)NC(CCSC)C(=O)O` (stereo not drawn) [C18:2-met, N-linoleoyl-Met]: the tasting result in assay [2] (1 ppm) is recorded as “fresh nice juicy”; in assay [5] (1 ppm) it was “salivating salty, umami”.

As for `CCCCCC/C=C\CCCCCCCC(=O)NCCCC(=O)O` [C16:1-gaba], the tasting result is reported as “juicy, rich, full authentic” in assay [2] (2 ppm) and “juicy, fruity, fatty, long lasting, good mouthfeel” in assay [3] (2 ppm).

Regarding `CCCCCCCC/C=C\CCCCCCCC(=O)NC(CCC(N)=O)C(=O)O` (stereo not drawn) [C18:1-gln], the tasting result in [6] was “Juicy, nice, fatty aftertaste”; in assay [3] (0.5 ppm), “more juicy, creamy, fruity long lasting”. As to `CCCCC/C=C\C/C=C\CCCCCCCC(=O)N[C@H](C(=O)O)C(C)C` [C18:2-val, N-linoleoyl-L-valine], the tasting result in [8] was “more body and mouthfeel, more umami”; in assay [2] (1 ppm) it was “ripe, very juicy nice, full body, long lasting”; in [5] (1 ppm), “more umami, salivating, salty”. As to `CCCCCCCC/C=C\CCCCCCCC(=O)N[C@@H](CC(C)C)C(=O)O` [C18:1-leu, N-oleoyl-L-leucine], in [2] (2 ppm), the tasting result is “very long lasting, ripe, fruity, juicy”. In the case of `CCCCCC/C=C\CCCCCCCC(=O)NC(CC(C)C)C(=O)O` [C16:1 leu, N-palmitenoyl-L-leucine], the tasting result in [8] was “Strong salty and rich”. Regarding `CCCCCCCCCC(=O)NC1(C(=O)O)CC1` [C10:0 ACCA, N-decanoyl 1-amino-cyclopropyl carboxylic acid], the tasting result is given as “More umami lingering body” in [9] (setting [10]) and “Nice strong salty, Umami lingering body, better chicken profile” in [9] (0.5 PPM in chicken bouillon base).

Take `CCCCCCCCCCCCCCCC(=O)NCCC(=O)O` [C16:0-beta ala]: the tasting result is given as “more juicy” in [2] (2 ppm) and “more salty salivating umami” in [5] (2 ppm). With `CCCCCCCCCCCCCCCC(=O)N[C@H](C(=O)O)C(C)C` [C16:0-val, N-palmitoyl-L-valine], the tasting result in assay [7] was “very juicy”. As for `CCCCCCCCCCCCCCCCCC(=O)N[C@@H](CO)C(=O)O` [C18:0-ser, N-stearoyl-Ser], the tasting result is on record as “nice sweet, pineapple, long lasting” in assay [2] (1 ppm) and “more salty, richer, more umami” in [5] (1 ppm).

For `CCCCC/C=C\C/C=C\CCCCCCCC(=O)NC1(C(=O)O)CC1` [C18:2 ACCA, N-linoleoyl 1-amino-cyclopropyl carboxylic acid], in assay [9] (setting [10]), the tasting result is “Creamy, full body, more fatty chicken”. `CCCCCCCCCCCCCCCCCC(=O)NC(CCC(N)=O)C(=O)O` (stereo not drawn) [C18:0-gln, N-stearoyl-Gln]: the tasting result in assay [6] is reported as “Sweet full juicy, nice, slight enhanced sulphury”.

As to `CCCCCCCCCCCCCCCCCC(=O)NC(CC(=O)O)C(=O)O` (stereo not drawn) [C18:0-asp, N-stearoyl-Asp], the tasting result in [2] (1 ppm) was “fatty, fruity, long lasting”; in assay [5] (1 ppm), “lot off fullness and body, less salty”.

Turning to `CCCCCCCCCCCCCCCC(=O)NCC(=O)O` [C16:0-gly], in [1], the tasting result was “sweet after taste juicy”. Consider `CCCCCCCC/C=C\CCCCCCCC(=O)NC(CC(=O)O)C(=O)O` (stereo not drawn) [C18:1-asp], for which the tasting result in assay [2] (1 ppm) is “juicy fruit like”; in assay [5] (1 ppm), “not special”.

For the compound `CCCCCCCC(=O)NC(CCSC)C(=O)O` (stereo not drawn) [C8:0-met], the tasting result in assay [2] (1 ppm) is listed as “green fresh, no additional body”; in assay [5] (1 ppm), “more salty, no additional fullness”. For the compound `CCCCCCCCCCCCCCCCCC(=O)NC(CCC(=O)O)C(=O)O` (stereo not drawn) [C18:0-glu, N-stearoyl-Glu], the tasting result is reported as “fatty, full, sweet juicy” in assay [2] (1 ppm); “fruity, juicy, long lasting” in assay [3] (0.5 ppm); “full, fatty, whipped cream like” in assay [4].

As for `CCCCC/C=C\C/C=C\CCCCCCCC(=O)N[C@@H](C)C(=O)O` [C18:2-ala, N-linoleoyl-L-alanine], the tasting result is “fatty, juicy, apple skin taste” in assay [2] (1 ppm); “creamy, fruity, juicy, green, long lasting, strawberry” in assay [3] (0.5 ppm); “enhanced sulfur note, powdery, soft peach skin like, authentic peach, slight raspberry note” in assay [7]. On to `CCCCCCCCCCCCCCCC(=O)N[C@@H](CC(C)C)C(=O)O` [C16:0-leu, N-palmitoyl-L-leucine], for which, in assay [2] (2 ppm), the tasting result is recorded as “very fruity, ripe mango taste, strawberry note”. As to `CC(C)=CCC/C(C)=C/C(=O)NC1(C(=O)O)CC1` [Geranoyl ACCA, N-geranoyl 1-amino-cyclopropyl carboxylic acid], in [9] (setting [10]), the tasting result was “Saltier Umami lingering Mouthfeel”.
